# What was measured:
# CCKA = target: T1, CCKA (Cavia porcellus, UniProt Q63931); test: CCKA binding assay, guinea pig pancreas membranes ([125I]-CCK8(S)); conditions: [125I]-CCK8(S) 200 pM, 0.375 μM PD134,308, 150 min at 21±3° C.; for Ki: pH 7.2, read-out: pKi (Guinea pig pancreas) (converted); for pKi (Guinea pig pancreas): pH 7.2
# T1 construct: The pancreatata were removed from male guinea-pigs; from tissue; host or cells: pancreas of male Dunkin Hartley guinea pigs, membranes
# T1 sequence (Q63931 1-430): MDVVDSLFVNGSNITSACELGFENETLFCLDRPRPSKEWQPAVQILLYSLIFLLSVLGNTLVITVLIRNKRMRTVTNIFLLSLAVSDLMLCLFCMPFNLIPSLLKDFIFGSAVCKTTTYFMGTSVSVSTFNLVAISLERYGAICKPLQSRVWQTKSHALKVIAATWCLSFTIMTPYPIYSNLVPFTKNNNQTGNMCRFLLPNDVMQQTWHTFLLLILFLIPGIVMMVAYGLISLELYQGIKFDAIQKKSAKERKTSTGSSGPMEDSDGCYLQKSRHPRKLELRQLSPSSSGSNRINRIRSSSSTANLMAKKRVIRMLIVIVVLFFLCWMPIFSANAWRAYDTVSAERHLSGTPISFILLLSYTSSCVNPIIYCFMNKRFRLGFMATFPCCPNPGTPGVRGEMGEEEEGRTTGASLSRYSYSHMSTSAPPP
# Procedure, shortened: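 Guinea-pig pancreatic membranes (1 mg/ml original wet weight, containing 0.375 μM PD134,308) were incubated 150 min at 21±3 °C in HEPES pH 7.2 with [125I]-CCK8(S), added at 200 pM, and competitor. Non-specific binding used L-364,718 (100 nM added). Bound tracer was filtered on GF/B and gamma-counted.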
# CCKB receptor = target: T2, CCKB receptor (Mus musculus, UniProt P56481); test: radioligand binding assay at the CCKB receptor in mouse cortical membranes ([125I]-CCK8S); conditions: [125I]-CCK8S 200 pM, 150 min at 21±3° C.; for Ki: pH 7.2, read-out: pKi (Mouse cortex) (converted); for pKi (Mouse cortex): pH 7.2
# T2 construct: The cortex was dissected, weighed and homogenised in 40 ml ice-cold buffer; tissue Charles River (animals); host or cells: cerebral cortex of male CD1 mice, membranes
# T2 sequence (P56481 1-453): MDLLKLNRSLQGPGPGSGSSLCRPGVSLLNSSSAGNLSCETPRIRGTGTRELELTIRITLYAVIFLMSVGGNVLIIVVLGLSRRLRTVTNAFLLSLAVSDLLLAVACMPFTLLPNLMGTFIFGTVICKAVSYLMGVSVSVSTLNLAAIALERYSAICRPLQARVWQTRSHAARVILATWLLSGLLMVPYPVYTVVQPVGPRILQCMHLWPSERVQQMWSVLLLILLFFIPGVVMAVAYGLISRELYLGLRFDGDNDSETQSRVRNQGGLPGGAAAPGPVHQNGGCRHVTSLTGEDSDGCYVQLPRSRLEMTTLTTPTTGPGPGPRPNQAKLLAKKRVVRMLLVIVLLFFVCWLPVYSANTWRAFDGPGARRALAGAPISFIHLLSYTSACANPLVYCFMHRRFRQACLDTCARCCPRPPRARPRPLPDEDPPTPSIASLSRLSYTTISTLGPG
# Procedure, shortened: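 Male CD1 mouse cortical membranes (2 mg/ml original wet weight) were incubated 150 min at 21±3 °C in HEPES buffer pH 7.2 (130 mM NaCl, 4.7 mM KCl, 5 mM MgCl2, 1 mM EDTA, bacitracin) with [125I]-CCK8S and competitor. Non-specific binding was defined with L-365,260; bound label was measured by GF/B filtration and gamma counting.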
Ki (CCKA) [µM],Ki (CCKB receptor) [µM],pKi (Guinea pig pancreas) (CCKA),pKi (Mouse cortex) (CCKB receptor),SMILES
10,5.01,,,"CC(=O)N1[C@H](CC23CC4CC(CC(C4)C2)C3)C(=O)N(C)c2ccccc2C(=O)C[C@H]1C(=O)NCC(=O)O [Example 32, (3R,5S)-4-acetyl-3-(1-adamantyl)methyl-5-carboxymethylaminocarbonyl-1-methyl-2,7-dioxo-2,3,4,5,6,7-hexahydro-1H-1,4-benzodiazonine]"
5.01,3.16,,,"CC(=O)N1[C@@H](C(=O)NCC(=O)O)CC(=O)c2ccccc2N(Cc2ccccc2)C(=O)[C@@H]1CC12CC3CC(CC(C3)C1)C2 [Example 36, (3S,5R)-4-acetyl-3-(1-adamantyl)methyl-1-benzyl-5-carboxymethylaminocarbonyl-2,7-dioxo-2,3,4,5,6,7-hexahydro-1H-1,4-benzodiazonine]"
6.31,1.58,,,"COC(=O)CNC(=O)[C@@H]1CC(=O)c2ccccc2N(Cc2ccccc2)C(=O)[C@@H](CC23CC4CC(CC(C4)C2)C3)N1C(C)=O [Example 37, (3R,5S)-4-acetyl-3-(1-adamantyl)methyl-1-benzyl-5-methoxycarbonylmethylaminocarbonyl-2,7-dioxo-2,3,4,5,6,7-hexahydro-1H-1,4-benzodiazonine]"
,,5.0,5.3,"CC(=O)N1[C@H](CCC(C)C)C(=O)N(Cc2ccccc2)c2ccccc2C(=O)C[C@H]1C(=O)NCC(=O)O [Example 38, (3R,5S)-4-acetyl-1-benzyl-5-carboxymethylaminocarbonyl-3-(3,3-dimethyl)propyl-2,7-dioxo-2,3,4,5,6,7-hexahydro-1H-1,4-benzodiazonine]"
,,5.0,5.6,"CC(=O)N1[C@H](CC2CCCCCC2)C(=O)N(Cc2ccccc2)c2ccccc2C(=O)C[C@H]1C(=O)NCC(=O)O [Example 39, (3R,5S)-4-acetyl-1-benzyl-5-carboxymethylaminocarbonyl-3-cycloheptylmethyl-2,7-dioxo-2,3,4,5,6,7-hexahydro-1H-1,4-benzodiazonine]"
,,4.7,5.4,"CC(=O)N1[C@H](CC2CCCCC2)C(=O)N(Cc2ccccc2)c2ccccc2C(=O)C[C@H]1C(=O)NCC(=O)O [Example 40, (3R,5S)-4-acetyl-1-benzyl-5-carboxymethylaminocarbonyl-3-cyclohexylmethyl-2,7-dioxo-2,3,4,5,6,7-hexahydro-1H-1,4-benzodiazonine]"
10,0.398,,,"CC(=O)N1[C@H](CC23CC4CC(CC(C4)C2)C3)C(=O)N(Cc2ccccc2)c2ccccc2C(=O)C[C@H]1C(=O)NCC(=O)NS(C)(=O)=O [Example 41, (3R,5S)-4-acetyl-3-(1-adamantyl)methyl-1-benzyl-5-methanesulphonamidocarboxymethylaminocarbonyl-2,7-dioxo-2,3,4,5,6,7-hexahydro-1H-1,4-benzodiazonine]"
10,20,,,"CC(C)(C)OC(=O)CN1C(=O)CN(C(=O)OCc2ccccc2)CCC(=O)c2ccccc21 [Example 42, 4-benzyloxycarbonyl-1-tert-butyloxycarbonylmethyl-2,7-dioxo-2,3 4,5,6,7-hexahydro-1H-1,4-benzodiazonine]"
10,15.8,,,CC(C)(C)OC(=O)CN1C(=O)CN(C(=O)Oc2ccccc2)CCC(=O)c2ccccc21 [Example 43]
0.158,3.16,,,"CC1CCN(C(=O)Nc2ccc(Cl)c(Cl)c2)CC(=O)N(Cc2ccccc2)c2ccccc21 (stereo not drawn) [Example 44, 1-benzyl-4-(3,4-dichlorophenyi)carbamyl-7-methyl-2-oxo-2,3,4,5,6,7-hexahydro-1H-1,4-benzodiazonine]"
0.0794,10,,,"CC1CCN(C(=O)Nc2ccc3ccccc3c2)CC(=O)N(Cc2ccccc2)c2ccccc21 (stereo not drawn) [Example 45, 1-benzyl-7-methyl-4-(2-naphthyl)carbamyl-2-oxo-2,3,4,5,6,7-hexahydro-1H-1,4-benzodiazonine]"
3.98,10,,,O=C(OCc1ccccc1)c1cccc(NC(=O)N2CCC(=O)c3ccccc3N(Cc3ccccc3)C(=O)C2)c1 [Example 46]
,,5.9,5.8,"Cc1cccc(NC(=O)N2CCC(c3ccccc3)c3ccccc3N(Cc3ccccc3)C(=O)C2)c1 (stereo not drawn) [Example 50, 1-benzyl-7-phenyl-4-(3-methylphenyl)carbamyl-2-oxo-2,3,4,5,6,7-hexahydro-1H-1,4-benzodiazonine]"
0.794,3.16,,,"CCC1CCN(C(=O)Nc2cccc(C)c2)CC(=O)N(Cc2ccccc2)c2ccccc21 (stereo not drawn) [Example 51, 1-benzyl-7-ethyl-4-(3-methylphenyl)carbamyl-2-oxo-5,2,3,4,5,6,7-hexahydro-1H-1,4-benzodiazonine]"
0.2,10,,,"CCC1CCN(C(=O)Nc2ccc(Cl)c(Cl)c2)CC(=O)N(Cc2ccccc2)c2ccccc21 (stereo not drawn) [Example 52, 1-benzyl-7-ethyl-4-(3,4-dichlorophenyl)carbamyl-2-oxo-2,3,4,5,6,7-hexahydro-1H-1,4-benzodiazonine]"
1,10,,,"COc1cccc(NC(=O)N2CCCc3ccccc3N(CC(=O)OC(C)(C)C)C(=O)C2)c1 [Example 55, 1-tert-butyloxycarbonylmethyl-4-(3-methoxyphenyl)carbamyl-2-oxo-2,3,4,5,6,7-hexahydro-1H-1,4-benzodiazonine]"
7.94,2,,,"CC(=O)N1[C@H](CC23CC4CC(CC(C4)C2)C3)C(=O)N(Cc2ccc(F)cc2)c2ccccc2C(=O)C[C@H]1C(=O)NCC(=O)O [Example 58, (3R,5S)-4-acetyl-3-(1-adamantyl)methyl-1-(4-fluorobenzyl)-5-carboxymethylaminocarbonyl-2,7-dioxo-2,3,4,5,6,7-hexahydro-1H-1,4-benzodiazonine]"
10,0.1,,,"CC(=O)N1[C@H](CC23CC4CC(CC(C4)C2)C3)C(=O)N(Cc2ccccc2F)c2ccccc2C(=O)C[C@H]1C(=O)NCC(=O)O [Example 59, (3R,5S)-4-acetyl-3-(1-adamantyl)methyl-1-(2-fluorobenzyl)-5-carboxymethyaminocarbonyl-2,7-dioxo-2,3,4,5,6,7-hexahydro-1H-1,4-benzodiazonine]"
10,0.2,,,"CC(=O)N1[C@H](CC23CC4CC(CC(C4)C2)C3)C(=O)N(Cc2cccc(F)c2)c2ccccc2C(=O)C[C@H]1C(=O)NCC(=O)O [Example 60, (3R,5S)-4-acetyl-3-(1-adamantyl)methyl-1-(3-fluorobenzyl)-5-carboxymethylaminocarbonyl-2,7-dioxo-2,3,4,5,6,7-hexahydro-1H-1,4-benzodiazonine]"
10,0.1,,,"CC(=O)N1[C@H](CC23CC4CC(CC(C4)C2)C3)C(=O)N(Cc2ccccc2Cl)c2ccccc2C(=O)C[C@H]1C(=O)NCC(=O)O [Example 63, (3R,5S)-4-acetyl-3-(1-adamantyl)methyl-1-(2-chlorobenzyl)-5-carboxymethylaminocarbonyl-2,7-dioxo-2,3,4,5,6,7-hexahydro-1H-1,4-benzodiazonine]"
25.1,0.158,,,"CC(=O)N1[C@H](CC23CC4CC(CC(C4)C2)C3)C(=O)N(Cc2ccccc2F)c2ccccc2C(=O)C[C@H]1C(=O)N[C@@H](C)C(=O)O [Example 64, (3R,5S)-4-acetyl-3-(1-adamantyl)methyl-1-(2-fluorobenzyl)-5-[(1S)-carboxy]ethylaminocarbonyl-2,7-dioxo-2,3,4,5,6,7-hexahydro-1H-1,4-benzodiazonine]"

# From patent publication US6057311A, “Benzodiazonine derivatives binding to cholecystokinin or gastrin receptors” (James Black Foundation Limited, priority 1996, dated 2000)
